Experimental data from publication PMC8920929 (The Journal of Biological Chemistry, 2022).

Molecular target: T1, TRPV3-I505A (Homo sapiens, UniProt Q8NET8, I505A)
T1 sequence (Q8NET8 1-790 I505A): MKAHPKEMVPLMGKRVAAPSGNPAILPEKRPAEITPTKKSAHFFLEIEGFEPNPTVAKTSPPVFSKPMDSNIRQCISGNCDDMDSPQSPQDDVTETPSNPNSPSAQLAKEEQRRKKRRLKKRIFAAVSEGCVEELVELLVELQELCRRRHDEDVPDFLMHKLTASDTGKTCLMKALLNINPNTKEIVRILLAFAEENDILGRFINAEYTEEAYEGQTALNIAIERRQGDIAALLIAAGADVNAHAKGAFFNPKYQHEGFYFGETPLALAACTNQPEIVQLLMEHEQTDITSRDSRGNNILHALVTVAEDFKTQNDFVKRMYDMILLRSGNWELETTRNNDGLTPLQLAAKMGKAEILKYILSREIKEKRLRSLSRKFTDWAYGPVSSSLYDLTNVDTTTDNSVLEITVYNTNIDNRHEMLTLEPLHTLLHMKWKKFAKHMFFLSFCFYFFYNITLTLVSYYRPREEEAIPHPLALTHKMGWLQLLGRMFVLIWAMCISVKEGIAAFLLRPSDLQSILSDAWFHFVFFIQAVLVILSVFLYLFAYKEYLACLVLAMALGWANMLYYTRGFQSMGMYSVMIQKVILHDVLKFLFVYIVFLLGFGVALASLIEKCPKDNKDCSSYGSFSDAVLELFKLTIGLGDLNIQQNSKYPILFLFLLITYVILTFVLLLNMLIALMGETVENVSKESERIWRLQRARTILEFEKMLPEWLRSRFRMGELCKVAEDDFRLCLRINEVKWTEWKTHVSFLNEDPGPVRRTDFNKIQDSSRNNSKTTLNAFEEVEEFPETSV
Assay: Whole-cell and single-channel recordings of the TRPV3-I505A mutant
Format: cell-based

## Cc1ccc(C(C)C)cc1O [carvacrol, 5-Isopropyl-2-methylphenol]
  EC50: 3.51 ± 0.44 mM
I505A versus WT
  right shift of channel activation versus WT TRPV3: over 10 fold
Carvacrol 0.3-3.0 mM or 50 μM 2-APB
  activation of TRPV3 I505A mutant channel: weak activation of TRPV3 I505A at high concentration of 3 mM
